Measured values: PMC12010006, “Subnanomolar MAS-related G protein-coupled receptor-X2/B2 antagonists with efficacy in human mast cells and disease models” (Signal Transduction and Targeted Therapy, 2025)
Entries after “also recorded” stand apart in the source; their conditions may differ.

Experiments:
MRGPRX2 = molecular target: T1, MRGPRX2 (Homo sapiens, UniProt Q96LB1); test: β-hexosaminidase release, primary human skin mast cells; assay type: cell-based
T1 sequence (Q96LB1 1-330): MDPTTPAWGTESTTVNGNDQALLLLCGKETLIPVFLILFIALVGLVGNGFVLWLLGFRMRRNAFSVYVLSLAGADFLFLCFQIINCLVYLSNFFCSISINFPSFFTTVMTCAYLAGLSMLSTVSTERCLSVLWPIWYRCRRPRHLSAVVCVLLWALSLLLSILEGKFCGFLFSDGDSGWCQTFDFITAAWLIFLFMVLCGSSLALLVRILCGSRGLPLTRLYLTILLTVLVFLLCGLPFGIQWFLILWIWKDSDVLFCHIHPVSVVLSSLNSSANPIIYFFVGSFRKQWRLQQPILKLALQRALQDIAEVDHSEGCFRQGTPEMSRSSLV
Experimental: Finally, the effect of the MRGPRX2 antagonist PSB-172656 on MRGPRX2-mediated MC degranulation in primary human skin mast cells isolated from breast skin tissue was investigated. These cells were controlled by flow cytometry for CD117, FcεRI, and MRGPRX2 to ensure their purity (Supplementary Fig. S6), and their functionality was assessed using the MC degranulation β-hexosaminidase release assay (Fig. 6g).
MCs were isolated from breast skin tissue, which was sectioned into strips and digested overnight at 4 °C in 2.4 U/mL dispase type II (Fisher Scientific). […] The purity of the MC cultures was assessed by flow cytometry for CD117 and FcεRI (Miltenyi) and exceeded 95%. […]
For β-hexosaminidase release assays, MCs were fed the day before stimulation with the medium. […] The reaction was stopped by adding 100 µL of sodium carbonate buffer (pH 10.7), and fluorescence was measured at 460 nm and excitation at 355 nm for 0.1 s. The percentage of β-hexosaminidase release was calculated as: […] × 100. […]

[1] = test system: C48/80-induced hind paw edema; test: Local allergic reaction (hind paw edema); assay type: in vivo, mouse; conditions: 50 mg/kg b.w., i.p.; C48/80 20 µL of 30 µg/mL into right hind paw; listed as PSB-172656
Experimental: PSB-172656 was further investigated in a mouse model of skin inflammation,[54] determining its effects on C48/80-induced hind paw edema. […] These findings indicate a strong anti-inflammatory effect of the MRGPRX2/B2 antagonist in this mouse model. Mice were given the antagonist PSB-172656 intraperitoneally at a dose of 50 mg/kg b.w. or vehicle (2% DMSO). The volume of the paws (both right (test) and left (control)) was measured using a plethysmometer (7140, UgoBasile, Italy). After 30 min, 20 µL of C48/80 (30 µg/mL) were injected into the right paw and 20 µL of 0.9% NaCl into the left paw. After 15 min, paw thickness was measured again. Mice were then killed by dislocation of cervical vertebrae. The mouse model has been described previously.[54],[69]

[2] = Metabolic stability in human liver microsomes; assay type: in vitro ADME; conditions: human liver microsomes 0.25 mg/ml, compound 1 µM

inhibition at 1.25 µM (MRGPRX2; lowest tested concentration 1.25 µM, versus CST-14, read-out: inhibition of β-hexosaminidase release in human skin MCs): > 50%
half-life at 1 µM ([2]; both sexes, human, liver microsomes, read-out: T1/2 (half-life)): 1.53 h
microsomal CLint at 1 µM ([2]; both sexes, read-out: Clint (intrinsic clearance)): 15 µL/min/mg
T1/2 (half-life) [2]: 1.54 h
T1/2 (half-life) ([2]; listed as PSB-172656): > 1.5 h
SMILES: CCc1c(C(C)C)[nH]c2nc3cc(F)c(F)cc3n2c1=O [Compound 24, 3-ethyl-7,8-difluoro-2-isopropylbenzo[4,5]imidazo [1,2-a] pyrimidin-4(1H)-one]
effect on MC degranulation in primary human skin mast cells (MRGPRX2; versus CST-14 (1 µM)): inhibited MC degranulation in response to CST-14 exposure (1 µM) in a concentration-dependent manner
effect on C48/80-induced paw swelling [1]: significant decrease in paw swelling; also recorded: prevents or reduces edema formation
